Laboratory results taken from patent US11773127B2, “Compounds and methods for treating bacterial infections” (Washington University, priority 2017, dated 2023).
Read-outs that look alike come from different tables or passages of the source.

Biological target: T1, FmlHLD (Escherichia coli, UniProt P77588)
T1 construct: 6xHis (C); made in house; host or cells: E. coli C600, periplasm, pTRC99a
Assay: biochemical
Type: binding, E. coli
Conditions: for PI100 (percent inhibition): galactoside at 100 μM; for IC50: IC50 (μM), Table 5, Gal and GalNAc inhibition of FmlH
In short: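 Sialidase-treated bovine submaxillary mucin (ds-BSM) coated wells, BSA-blocked, then biotinylated FmlH^LD (20 μg/mL) with or without compound for 1 h at room temperature. Bound lectin detected by streptavidin-HRP/TMB, A450.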

[1] = read-out: PI100 (percent inhibition), galactoside at 100 μM, mean with standard error of the mean
[2] = mean with standard error of the mean, 100 µM
[3] = read-out: PI10 (percent inhibition), galactoside at 10 μM, mean with standard error of the mean
[4] = read-out: PI1 (percent inhibition), galactoside at 1 μM, mean with standard error of the mean
[5] = mean with standard error of the mean
[6] = read-out: % Inhibition at [μM] [100], compound at 100 μM, inhibition of FmlHLD binding to ds-BSM
[7] = read-out: % Inhibition at [μM] [1], compound at 1 μM, inhibition of FmlHLD binding to ds-BSM
[8] = read-out: % Inhibition at [μM] [10], compound at 10 μM, inhibition of FmlHLD binding to ds-BSM

T1 sequence (P77588 25-182): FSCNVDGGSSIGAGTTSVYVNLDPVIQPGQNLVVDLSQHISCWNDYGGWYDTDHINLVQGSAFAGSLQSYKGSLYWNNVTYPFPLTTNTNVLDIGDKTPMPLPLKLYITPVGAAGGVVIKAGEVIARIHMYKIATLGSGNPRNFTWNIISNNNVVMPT

OC[C@H]1O[C@H](Oc2cccc3ccccc23)[C@H](O)[C@@H](O)[C@H]1O [Compound 18α, 1-naphthalenyl α/β-D-galactopyranoside]
inhibition at 100 µM [1]: 28.1 ± 3.4%

OC[C@H]1O[C@@H](Oc2cccc3ccccc23)[C@H](O)[C@@H](O)[C@H]1O [Compound 18β, 1-naphthalenyl α/β-D-galactopyranoside]
PI100 (percent inhibition) [2]: 45.9 ± 3.7%
inhibition at 100 µM [1]: 46%

OC[C@H]1O[C@@H](Oc2ccc3ccccc3c2)[C@H](O)[C@@H](O)[C@H]1O [Compound 19β]
PI100 (percent inhibition) [2]: 78.8 ± 2.1%
inhibition at 10 µM [3]: 14.6 ± 3.1%
inhibition at 100 µM [1]: 79%

OC[C@H]1O[C@@H](Oc2cccc3ccncc23)[C@H](O)[C@@H](O)[C@H]1O [Compound 21β, 8-isoquinolinyl β-D-galactopyranoside]
PI100 (percent inhibition) [2]: 15.2 ± 7.1%
inhibition at 100 µM [1]: 15%

OC[C@H]1O[C@@H](SCCc2ccccc2)[C@H](O)[C@@H](O)[C@H]1O [Compound 22β-thio]
inhibition at 10 µM [3]: 2.3 ± 2.5%
inhibition at 100 µM [1]: 49.8 ± 2.5%

OC[C@H]1O[C@H](Oc2ccccc2-c2ccccc2)[C@H](O)[C@@H](O)[C@H]1O [Compound 28α, [1,1′-biphenyl]-2-yl α/β-D-galactopyranoside]
inhibition at 100 µM [1]: 19.2 ± 3%

OC[C@H]1O[C@@H](Oc2ccccc2-c2ccccc2)[C@H](O)[C@@H](O)[C@H]1O [Compound 28β, [1,1′-biphenyl]-2-yl α/β-D-galactopyranoside]
PI100 (percent inhibition) [2]: 91.1 ± 1.2%
inhibition at 1 µM [4]: 8.1 ± 6%
inhibition at 10 µM [3]: 31 ± 2.1%
inhibition at 100 µM [1]: 91%

O=C(O)c1cccc(-c2ccccc2O[C@H]2O[C@H](CO)[C@H](O)[C@H](O)[C@H]2O)c1 [Compound 29α, 2′-(α/β-D-galactopyranosyloxy)-[1,1′-Biphenyl]-3-carboxylic acid]
inhibition at 100 µM [1]: 26.2 ± 5.9%

COC(=O)c1cccc(-c2ccccc2O[C@H]2O[C@H](CO)[C@H](O)[C@H](O)[C@H]2O)c1 [Compound 30α, 2′-(α/β-D-galactopyranosyloxy)-[1,1′-Biphenyl]-3-carboxylic acid methyl ester]
inhibition at 100 µM [1]: 13.1 ± 7.6%

COC(=O)c1cccc(-c2ccccc2O[C@@H]2O[C@H](CO)[C@H](O)[C@H](O)[C@H]2O)c1 [Compound 30β, 2′-(α/β-D-galactopyranosyloxy)-[1,1′-Biphenyl]-3-carboxylic acid methyl ester]
PI100 (percent inhibition) [2]: 86.6 ± 0.8%
inhibition at 1 µM [4]: 3.7 ± 3.5%
inhibition at 10 µM [3]: 22.4 ± 2.6%
inhibition at 100 µM [1]: 87%

OC[C@H]1O[C@H](Oc2cccc(-c3ccccc3)c2)[C@H](O)[C@@H](O)[C@H]1O [Compound 31α, [1,1′-biphenyl]-3-yl α/β-D-galactopyranoside]
inhibition at 100 µM [1]: 45.6 ± 2.5%

OC[C@H]1O[C@@H](Oc2cccc(-c3ccccc3)c2)[C@H](O)[C@@H](O)[C@H]1O [Compound 31β, [1,1′-biphenyl]-3-yl α/β-D-galactopyranoside]
PI100 (percent inhibition) [2]: 56.9 ± 6.2%
inhibition at 10 µM [3]: 7.8 ± 5.5%
inhibition at 100 µM [1]: 57%

OC[C@H]1O[C@H](Oc2ccc(-c3ccccc3)cc2)[C@H](O)[C@@H](O)[C@H]1O [Compound 32α, [1,1′-biphenyl]-4-yl α/β-D-galactopyranoside]
inhibition at 10 µM [3]: 22.6 ± 3.9%
inhibition at 100 µM [1]: 86.5 ± 1.7%

OC[C@H]1O[C@@H](Oc2ccc(-c3ccccc3)cc2)[C@H](O)[C@@H](O)[C@H]1O [Compound 32β, [1,1′-biphenyl]-4-yl α/β-D-galactopyranoside]
inhibition at 100 µM [1]: 30%

CC(=O)N[C@H]1[C@@H](Oc2ccc([N+](=O)[O-])cc2)O[C@H](CO)[C@H](O)[C@@H]1O[C@@H]1O[C@H](CO)[C@H](O)[C@H](O)[C@H]1O [Compound 33, p-nitrophenyl Gal-β1-3-GalNAc, reference compound]
PI100 (percent inhibition) [5]: 15.3 ± 3.1%

CC(=O)N[C@H]1[C@H](Oc2ccc([N+](=O)[O-])cc2)O[C@H](CO)[C@@H](O)[C@@H]1O[C@@H]1O[C@H](CO)[C@H](O)[C@H](O)[C@H]1O [Compound 34, p-nitrophenyl Gal-β1-3-GlcNAc, reference compound]
PI100 (percent inhibition) [5]: −3.6 ± 1.0%

O=[N+]([O-])c1ccc(O[C@@H]2O[C@H](CO[C@@H]3O[C@H](CO)[C@H](O)[C@H](O)[C@H]3O)[C@H](O)[C@H](O)[C@H]2O)cc1 [Compound 35, p-nitrophenyl Gal-β1-6-Gal, reference compound]
PI100 (percent inhibition) [5]: 19.4 ± 1.6%

OC[C@H]1O[C@H](Oc2ccccc2-c2ccccc2)[C@H](O)[C@@H](O)[C@H]1O [Compound 113f1]
inhibition at 100 µM [6]: 19.2%

OC[C@H]1O[C@@H](Oc2ccccc2-c2ccccc2)[C@H](O)[C@@H](O)[C@H]1O [Compound 113f2]
inhibition at 1 µM [7]: 8.1%
inhibition at 10 µM [8]: 31%
inhibition at 100 µM [6]: 91.1%

OC[C@H]1O[C@H](Oc2cccc(-c3ccccc3)c2)[C@H](O)[C@@H](O)[C@H]1O [Compound 114af1]
inhibition at 100 µM [6]: 45.6%

OC[C@H]1O[C@@H](Oc2cccc(-c3ccccc3)c2)[C@H](O)[C@@H](O)[C@H]1O [Compound 114af2]
inhibition at 10 µM [8]: 7.8%
inhibition at 100 µM [6]: 56.9%

OC[C@H]1O[C@H](Oc2ccc(-c3ccccc3)cc2)[C@H](O)[C@@H](O)[C@H]1O [Compound 114bf1]
inhibition at 10 µM [8]: 22.6%
inhibition at 100 µM [6]: 86.5%

OC[C@H]1O[C@@H](Oc2ccc(-c3ccccc3)cc2)[C@H](O)[C@@H](O)[C@H]1O [Compound 114bf2]
inhibition at 100 µM [6]: 30%

OC[C@H]1O[C@H](Oc2cccc3ccccc23)[C@H](O)[C@@H](O)[C@H]1O [Compound 115af1]
inhibition at 100 µM [6]: 28.1%

OC[C@H]1O[C@@H](Oc2cccc3ccccc23)[C@H](O)[C@@H](O)[C@H]1O [Compound 115af2]
inhibition at 100 µM [6]: 45.9%

COC(=O)c1cccc(-c2ccccc2O[C@H]2O[C@H](CO)[C@H](O)[C@H](O)[C@H]2O)c1 [Compound 116e]
inhibition at 100 µM [6]: 13.1%

COC(=O)c1cccc(-c2ccccc2O[C@@H]2O[C@H](CO)[C@H](O)[C@H](O)[C@H]2O)c1 [Compound 116f]
inhibition at 1 µM [7]: 3.7%
inhibition at 10 µM [8]: 22.4%
inhibition at 100 µM [6]: 86.6%

Cc1ccccc1O[C@H]1O[C@H](CO)[C@H](O)[C@H](O)[C@H]1O [Compound 135a]
inhibition at 100 µM [6]: 30%

Cc1ccccc1O[C@@H]1O[C@H](CO)[C@H](O)[C@H](O)[C@H]1O [Compound 135b]
inhibition at 1 µM [7]: 1.81%
inhibition at 10 µM [8]: 28.2%
inhibition at 100 µM [6]: 87.3%

N#Cc1ccccc1O[C@H]1O[C@H](CO)[C@H](O)[C@H](O)[C@H]1O [Compound 137a]
inhibition at 100 µM [6]: 17.8%

N#Cc1ccccc1O[C@@H]1O[C@H](CO)[C@H](O)[C@H](O)[C@H]1O [Compound 137b]
inhibition at 1 µM [7]: 12.1%
inhibition at 10 µM [8]: 30.4%
inhibition at 100 µM [6]: 94.5%

COc1cc(OC)cc(O[C@@H]2O[C@H](CO)[C@H](O)[C@H](O)[C@H]2O)c1 [Compound 151d]
inhibition at 10 µM [8]: 11.7%
inhibition at 100 µM [6]: 76.4%

N#Cc1ccc(O[C@@H]2O[C@H](CO)[C@H](O)[C@H](O)[C@H]2O)cc1 [Compound 152b]
inhibition at 1 µM [7]: 9.47%
inhibition at 10 µM [8]: 19.2%
inhibition at 100 µM [6]: 85.7%

Cc1ccc(O[C@@H]2O[C@H](CO)[C@H](O)[C@H](O)[C@H]2O)cc1 [Compound 153a]
inhibition at 1 µM [7]: 4.59%
inhibition at 10 µM [8]: 16.5%
inhibition at 100 µM [6]: 85.8%

OC[C@H]1O[C@@H](Oc2ccccc2Cl)[C@H](O)[C@@H](O)[C@H]1O [Compound 154c]
inhibition at 1 µM [7]: 7.95%
inhibition at 10 µM [8]: 20.7%
inhibition at 100 µM [6]: 90.5%

O=C(O)c1cccc(-c2ccccc2O[C@H]2O[C@H](CO)[C@H](O)[C@H](O)[C@H]2O)c1 [Compound 200a]
inhibition at 100 µM [6]: 26.2%

COc1ccc(C(=O)O)cc1-c1ccccc1O[C@@H]1O[C@H](CO)[C@H](O)[C@H](O)[C@H]1NC(C)=O [Compound 2051, 2′-(((2S,3R,4R,5R,6R)-3-acetamido-4,5-dihydroxy-6-(hydroxymethyl)tetrahydro-2H-pyran-2-yl)oxy)-6-methoxy-[1,1′-biphenyl]-3-carboxylic acid]
inhibitory potency against FmlH, in words (ELISA-based competition assay): weakest activity
IC50: 3.87 µM
drop in activity relative to 29β-NAc (IC50 ratio): 6 fold
inhibition at 0.1 µM (read-out: PI (0.1) (average percent inhibition), compound at 100 nM, Table 4): 0%
inhibition at 1 µM (read-out: PI(1) (average percent inhibition), compound at 1 μM, Table 4): 15.9%

CC(=O)N[C@@H]1[C@H](Oc2ccccc2-c2cc(C(=O)O)cc([N+](=O)[O-])c2)OC(CO)[C@H](O)[C@@H]1O (stereo partly drawn) [Compound 3029, 2′-(((2S,3S,4R,5R)-3-acetamido-4,5-dihydroxy-6-(hydroxymethyl)tetrahydro-2H-pyran-2-yl)oxy)-5-nitro-[1,1′-biphenyl]-3-carboxylic acid]
IC50: 2.2 µM

CC(=O)N[C@@H]1[C@H](Oc2ccccc2-c2cccc(NC(=O)C(F)(F)F)c2)OC(CO)[C@H](O)[C@@H]1O (stereo partly drawn) [Compound 3044, N-(2′-(((2S,3S,4R,5R)-3-acetamido-4,5-dihydroxy-6-(hydroxymethyl)tetrahydro-2H-pyran-2-yl)oxy)-[1,1′-biphenyl]-3-yl)-2,2,2-trifluoroacetamide]
IC50: 0.37 µM

CC(=O)N[C@H]1[C@H](Oc2ccccc2-c2cccc(NS(=O)(=O)C(F)(F)F)c2)O[C@H](CO)[C@H](O)[C@@H]1O [Compound 3049, N-((2S,3R,4R,5R,6R)-4,5-dihydroxy-6-(hydroxymethyl)-2-((3′-((trifluoromethyl)sulfonamido)-[1,1′-biphenyl]-2-yl)oxy)tetrahydro-2H-pyran-3-yl) acetamide]
IC50: 1.17 µM
